Assay results from PMC11946679 (Toxics, 2025).
Marks after values point to notes of the source that are not given here.

Assays:
[1] = system: human peripheral blood lymphocytes; type: cell-based; settings: alone, 3 h, IRI 9.0 mg/L, bleomycin 15 mg/L; for Total No. of Cells in Apoptosis / Total No. of Nonviable Cells: scored along with 4000 binucleated cells
Description: While screening microscope preparations to determine trends in the levels of the main CBMN assay descriptors, nonviable cells were also simultaneously counted on the same slides. Their discrimination was based on the specific morphological features typical for apoptosis or necrosis. It is well known that the biological significance of these phenomena differs deeply, and that the determination of the predominant type of cell death represents a very important issue in each experimental setting.
For each experimental group, we also calculated the ratio between the recorded number of nonviable cells and the cells in apoptosis (Table 5). According to reference, a ratio ≤ 1 means a prevalence of apoptotic events that induce cell death, while a ratio > 1 indicates the acute toxicity of the tested substance that promotes necrosis.

[2] = system: human peripheral blood lymphocytes; test: CBMN cytome assay: lymphocyte proliferation (M1-M4, CBPI, RI); type: cell-based; settings: alone, 3 h; IRI 9.0 mg/L, bleomycin 15 mg/L
Procedure: On the same slides, parameters of cell proliferation and cytotoxicity were also evaluated, in line with the OECD protocol.

[3] = system: human peripheral blood lymphocytes; test: CBMN cytome assay: micronuclei, nuclear buds, nucleoplasmic bridges; settings: alone, 3 h; IRI 9.0 mg/L, bleomycin 15 mg/L
Procedure: The CBMN assay was performed in line with standard protocols [8, 23].
To collect the blood sample, lithium heparin-coated tubes were used (BD vacutainer® with LH 170 I.U., Becton Dickinson: BD-Plymouth PL6 78P, UK).
There were 15 experimental groups altogether. The same experimental design was applied in two independent trials, each of which had two replicate cultures per experimental group; therefore, four replicate cultures for every single experimental group were established.
To induce cell division prior to exposure to the test chemicals, lymphocytes were stimulated with the mitogen phytohemagglutinin (PHA). Cultures were kept in a humidified atmosphere of 5% CO2 at 37 °C.
They started 41 h after PHA stimulation and lasted for 3 h at 37 °C.
Upon completion of exposure, lymphocyte cultures were centrifuged at 100× g. […] This procedure was timed for the 44th hour of lymphocyte cultivation, which represents a critical point for adding of cytoB to hinder cytokinesis and obtain binucleated cells. All treated and control cultures were further maintained at 37 °C until the end of the 72nd hour of cultivation, according to the above-mentioned standard protocols.
The first step in the preparation of microscopic slides was harvesting of cells by centrifugation (100× g), followed by treatment with 0.075 mol/L potassium chloride and succeeded by centrifugation. The sediments of cells were repeatedly fixed with methanol/acetic acid (3:1 v/v) followed by centrifugation. The final lymphocyte suspension was pipetted onto clean microscope slides. For staining, 5% aqueous solution of Giemsa dye was used. Slides were screened using a light microscope at 1000× magnification. For morphological discrimination of micronuclei (MNi), nuclear buds (NBs), nucleoplasmic bridges (NPBs) and cells in apoptosis or necrosis, the criteria by Fenech et al. [25] and Fenech [23] were applied. To determine their frequencies, per experimental point, a total of 4 × 1000 binucleated (BN) cells were scored.
This value was first used to estimate the number of MNi required to reach a decrease and an increase considered significant at a 5% significance level.

**Q.** What does the source list for `CCc1c2c(nc3ccc(OC(=O)N4CCC(N5CCCCC5)CC4)cc13)-c1cc3c(c(=O)n1C2)COC(=O)[C@]3(O)CC` [Irinotecan, reference compound]?
**A.** Total No. of Cells in Apoptosis [1]: 42; Total No. of Nonviable Cells [1]: 76; % of Cells with 1 to 4 Nuclei M1 [2]: 43.1 ^↑ %; % of Cells with 1 to 4 Nuclei M2 [2]: 52.9 ^↓ %; % of Cells with 1 to 4 Nuclei M3 [2]: 2.0 ^↓ %; % of Cells with 1 to 4 Nuclei M4 [2]: 2.0 ^↓ %; CBPI [2]: 1.609

**Q.** For Bleomycin [reference compound], which “Ratio (nonviable cells and cells in apoptosis)” value [1] is on record?
**A.** 0.6

**Q.** What about the “Total No. of Cells in Apoptosis” value [1] of the same compound?
**A.** 59

**Q.** And the “Total No. of Nonviable Cells” value [1]?
**A.** 100

**Q.** And the “% of Cells with 1 to 4 Nuclei M1” value [2]?
**A.** 45.5 ^↑ %

**Q.** And the “% of Cells with 1 to 4 Nuclei M2” value [2]?
**A.** 46.1 ^↓ %

**Q.** And the “% of Cells with 1 to 4 Nuclei M3” value [2]?
**A.** 4.2%

**Q.** What about the “% of Cells with 1 to 4 Nuclei M4” value [2] of the same compound?
**A.** 4.2 ^↓ %

**Q.** What about the CBPI [2] of the same compound?
**A.** 1.629

**Q.** And the “Replication Index (%)” value [2]?
**A.** 64.0%

**Q.** What about the “Distribution of BNMN Cells with 1 MN” value [3] of the same compound?
**A.** 65 *

**Q.** What about the “Distribution of BNMN Cells with 2 MN” value [3] of the same compound?
**A.** 11 iri, g10+iri

**Q.** What about the “Distribution of BNMN Cells with 3 MN” value [3] of the same compound?
**A.** 2

**Q.** What about the “Distribution of BNMN Cells with 4 MN” value [3] of the same compound?
**A.** 1

**Q.** What about the “Distribution of BNNB Cells with 1 NB” value [3] of the same compound?
**A.** 49 *

**Q.** What about the “Distribution of BNNB Cells with 2 NB” value [3] of the same compound?
**A.** 4 c,p1,p5,p10,g1, g5,g10, p1+iri, p5+iri, p10+iri, g5+iri, g10+iri

**Q.** And the “Distribution of BNNPB Cells with 1 NPB” value [3]?
**A.** 7 c,p1,p5,p10,g1, g5,g10, p1+iri, p5+iri, p10+iri, g1+iri, g5+iri, g10+iri

**Q.** And the “Distribution of BNNPB Cells with 2 NPB” value [3]?
**A.** 0

**Q.** What about the “Micronuclei (MNi) Mean (BNMN)1000 ± SD” value [3] of the same compound?
**A.** 19.75 ± 3.77

**Q.** And the “Micronuclei (MNi) Mean (MNi)1000 ± SD” value [3]?
**A.** 24.25 ± 6.24

**Q.** And the “Micronuclei (MNi) Total (BNMN)4000” value [3]?
**A.** 79 *

**Q.** And the “Micronuclei (MNi) Total (MNi)4000” value [3]?
**A.** 97 *

**Q.** And the “Nuclear Buds (NBs) Mean (BNNB)1000 ± SD” value [3]?
**A.** 13.25 ± 0.96

**Q.** What about the “Nuclear Buds (NBs) Mean (NBs)1000 ± SD” value [3] of the same compound?
**A.** 14.25 ± 0.50

**Q.** What about the “Nuclear Buds (NBs) Total (BNNB)4000” value [3] of the same compound?
**A.** 53 *

**Q.** What about the “Nuclear Buds (NBs) Total (NBs)4000” value [3] of the same compound?
**A.** 57 *

**Q.** What about the “Nucleoplasmic Bridges (NPBs) Mean (BNNPB)1000 ± SD” value [3] of the same compound?
**A.** 1.75 ± 1.26 c,p1,p5,p10, g1,g5,g10, p1+iri, p5+iri, p10+iri, g1+iri, g5+iri, g10+iri

**Q.** And the “Nucleoplasmic Bridges (NPBs) Mean (NPBs)1000 ± SD” value [3]?
**A.** 1.75 ± 1.26 c,p1,p5,p10, g1,g5,g10, p1+iri, p5+iri, p10+iri, g1+iri, g5+iri, g10+iri

**Q.** And the “Nucleoplasmic Bridges (NPBs) Total (BNNPB)4000” value [3]?
**A.** 7 c,p1,p5, p10,g1,g5,g10,p1+iri,p5+iri, p10+iri, g1+iri, g5+iri, g10+iri

**Q.** And the “Nucleoplasmic Bridges (NPBs) Total (NPBs)4000” value [3]?
**A.** 7 c,p1,p5,p10,g1,g5,g10,p1+iri, p5+iri, p10+iri, g1+iri, g5+iri, g10+iri
